Patent US20020132220A1, “Use of selectin antagonists in organ preservation solutions” (priority 2000, published 2002)
Where a name gives a salt, the structure may show the parent alone.

Columns and labels:
[1] = test system: rat kidney; experiment: Syngeneic rat kidney transplantation (Lewis to Lewis) after flushing the kidney with perfusate; ischemia/reperfusion injury; format: in vivo; conditions: for Blood Urea Nitrogen / Serum Creatinine / GFR: syngeneic transplantation; for GFR: 4° C., 30 min on ice
Experimental: (§1) To determine the effects of bimosiamose on the ischemia/reperfusion component of transplant injury, the following experiment was performed. To test bimosiamose solutions, a rat kidney is flushed with a solution containing bimosiamose (compound 1, 1,6-bis-(3-(3-carbomethylphenyl)-4-(2-α-D-mannopyranosyloxy)phenyl)hexane disodium salt, prepared according to the procedure described in U.S. Pat. No. 5,919,768) upon harvest from a donor and prior to placement into a recipient, to determine whether or not there is any protective effect. Rats for both examples were supplied by Harlan. A syngeneic transplantation model (Lewis rat to Lewis rat) was utilized. In this model, the immune system mediated rejection component is not relevant since the donor and recipient are of similar genetic background (syngeneic). In this experiment, test bimosiamose solutions were made up in a concentration of 100 mg/ml in phosphate-buffered saline solution, at a pH of 7.4. Test amounts of bimoisamose solution (as indicated in column 1 of Table 1) were added to Collins solution, to form the test perfusate solution. The Collins solution was purchased from Baxter, and contained 740 mg dibasic potassium phosphate, 205 mg monobasic potassium phosphate, 112 mg potassium chloride and 84 mg sodium bicarbonate per 100 mL solution, at pH 7.4. The test perfusate solution was cooled to a temperature of 4° C., and then 2 ml was utilized to perfuse the organ, which was afterwards maintained on ice for thirty minutes. Perfusion pressure was at or below physiologic pressure during the perfusion.
(§2) Following the 30 minute cold-temperature perfusion, transplantation was performed by transplanting a graft organ using end-to-end anastomosis of the renal artery, vein and ureter, with a simultaneous contralateral nephrectomy, wherein when the graft fails, the recipient does shortly thereafter.
This injury is the result of 30 minutes of cold ischemia with an additional 30 minutes of warm ischemia during the surgical re-anastomosis. N in the first column of Table 1 indicates sample size, i.e.—when N=6, six animals were tested. […] These observations are supported by reductions in serum creatinine and blood urea nitrogen (see Table 1). Therefore, Table 1 illustrates a statistically significant improvements associated with bimosiamose treatment.

[2] = test system: rat kidney; experiment: Allogeneic rat kidney transplantation (Lewis to ACI) after flushing the kidney with perfusate; graft/recipient survival; format: in vivo, Lewis rats to ACI rats; conditions: for Survival: allogeneic transplantation, no immunosuppression
Experimental: as §1, §2
The procedure described in Example 1 was also utilized to determine what effect bimosiamose solutions would have when transplantation between donor and recipient were not matched for histocompatibility (test rats are allogenic). […]

[3] = kidney perfused with 0.5 mg/ml in Collins solution
[4] = kidney perfused with 1.0 mg/ml in Collins solution

Q: What does the source list for O=C(O)Cc1cccc(-c2cc(CCCCCCc3ccc(OC4OC(CO)C(O)C(O)C4O)c(-c4cccc(CC(=O)O)c4)c3)ccc2OC2OC(CO)C(O)C(O)C2O)c1 [Cmpd. 1, 1,6-bis-(3-(3-carbomethylphenyl)-4-(2-α-D-mannopyranosyloxy)phenyl)hexane disodium salt]?
A: Renal function (in words) ([1]; flushing the organ with a solution containing 1 mg/2 ml or 2 mg/2 ml): preservation of renal function; Blood Urea Nitrogen [1, 3]: 49.8 ± 24.2 mg/dL; Serum Creatinine [1, 3]: 0.62 ± 0.23 mg/dL; GFR [1, 3]: 0.70 ± 0.37 mL/min; Blood Urea Nitrogen [1, 4]: 32.0 ± 4.6 mg/dL; Serum Creatinine [1, 4]: 0.48 ± 0.08 mg/dL; GFR [1, 4]: 0.91 ± 0.08 mL/min; Survival ([2]; kidney flushed with 0.5 mg/ml): 18.50 ± 6.45 days; Survival ([2]; kidney flushed with 1.0 mg/ml): 30.25 ± 13.25 days; Graft function/survival (in words) ([2]; renal allografts flushed with solution, without standard immunosuppressive agents): dose-related preservation of graft function/survival
